Data set [1] can be described thus: Caco-2 permeability assay. In kind it is in vitro ADME, human. Conditions: human; for recovery at 2 h, 10 μM: Caco-2, pH 7.4, SI table; for Papp B→A at 2 h, 10 μM / Papp A→B at 2 h, 10 μM: Caco-2, pH 7.4; for Papp B→A at 2 h, 10 μM: SI table; for Papp A→B at 2 h, 10 μM: apical to basolateral, limit of quantification 1.0 x 10^−6 cm/s, read-out: CACO2 Papp A:B. The protocol:
(§1) Whether the inhibition of ERAP1 by 1 would translate to in-cell activity would depend on its permeability, as well as its affinity.
(§2) Papp (apparent permeability) was determined in the Caco-2 human colon carcinoma cell line (ATCC). Cells were maintained (DMEM with 10% fetal bovine serum, penicillin, and streptomycin) in a humidified atmosphere with 5% CO2/95% air for 10 days. Cells were plated out onto a cell culture assembly plate (Millipore, UK), and monolayer confluency was checked using a TEER electrode prior to the assay. Media was washed off and replaced in the appropriate apical and basal wells with HBSS buffer (pH 7.4) containing compound (10 μM, 1% DMSO). The Caco-2 plate was incubated for 2 h at 37 °C, and Lucifer Yellow was used to confirm membrane integrity after the assay. Samples from the apical and basolateral chambers were analyzed using a Waters TQ-S LC-MS/MS system.
On the technique in general: Passage across Caco-2 layers is used to estimate intestinal permeability.

The test system of data set [2] is Caco-2 human colon carcinoma cell line. The data set is described as follows: Caco-2 permeability assay. The class given is in vitro ADME. The following applies: SI table, remark in Recovery A:B cell. The protocol:
as §1, §2

Another data set concerns the target human ERAP2 (Homo sapiens, UniProt Q6P179). The data set is described as follows: ERAP2 R-AMC aminopeptidase assay. Conditions: ERAP2 10 nM, R-AMC 10 µM, pH8.0, 30 min.

Like-named read-outs stand apart in the source and are kept apart here. A value given as a limit tells only on which side of the number the result lay.

Chain of human ERAP2 (Q6P179 whole entry): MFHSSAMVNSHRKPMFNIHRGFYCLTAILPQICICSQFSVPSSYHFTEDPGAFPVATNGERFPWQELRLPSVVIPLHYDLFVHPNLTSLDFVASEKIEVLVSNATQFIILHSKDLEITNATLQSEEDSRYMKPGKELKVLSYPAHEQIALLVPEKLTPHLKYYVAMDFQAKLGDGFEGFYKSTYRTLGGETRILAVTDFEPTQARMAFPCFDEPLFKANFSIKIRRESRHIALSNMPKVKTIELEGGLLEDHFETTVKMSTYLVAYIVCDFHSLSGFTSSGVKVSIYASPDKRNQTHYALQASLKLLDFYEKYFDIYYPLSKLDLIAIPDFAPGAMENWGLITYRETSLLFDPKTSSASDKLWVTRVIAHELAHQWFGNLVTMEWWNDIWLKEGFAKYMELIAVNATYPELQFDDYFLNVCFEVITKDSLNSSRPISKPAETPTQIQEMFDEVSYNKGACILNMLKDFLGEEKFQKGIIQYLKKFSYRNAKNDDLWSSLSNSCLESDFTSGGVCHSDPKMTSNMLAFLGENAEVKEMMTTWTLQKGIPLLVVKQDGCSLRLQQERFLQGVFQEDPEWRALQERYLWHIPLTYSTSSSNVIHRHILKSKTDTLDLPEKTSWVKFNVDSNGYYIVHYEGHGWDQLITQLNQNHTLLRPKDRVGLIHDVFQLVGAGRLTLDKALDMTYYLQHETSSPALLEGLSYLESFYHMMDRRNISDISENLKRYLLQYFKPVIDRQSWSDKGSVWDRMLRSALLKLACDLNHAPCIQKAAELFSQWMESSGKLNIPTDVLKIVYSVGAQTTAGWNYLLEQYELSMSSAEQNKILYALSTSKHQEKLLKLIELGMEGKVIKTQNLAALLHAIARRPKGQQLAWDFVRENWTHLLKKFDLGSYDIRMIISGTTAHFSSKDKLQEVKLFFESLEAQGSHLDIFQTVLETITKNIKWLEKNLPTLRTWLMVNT
Text for human ERAP2: Conditions were selected whereby substrate concentrations were at or below Km, so that IC50 values could be compared between proteins for competitive ligands.
Briefly, the assay consists in measuring the fluorescence of 7-amido-4-methylcoumarin (AMC) released by the enzymatic hydrolysis of one of the short peptide substrates: Leucine-AMC (Sigma, catalogue # L2145) by the ERAP1 enzyme, Arginine-AMC (Sigma, catalogue # A2027) by the ERAP2 enzyme or Alanine-AMC (Sigma, catalogue #A4302) by the APN (ANPEP/CD13) enzyme. […] After 30 minutes of reaction at room temperature, the fluorescence was red on a Pherastar FSX (BMG LabTech) or an Envision (Perkin Elmer) plate readers, with excitation and emission filters at 350 nm and 460 nm, respectively.

Regarding `COC(=O)[C@H](Cc1c[nH]c2ccccc12)NC(=O)C(CC(C)C)CP(=O)(O)[C@@H](N)CCc1ccccc1` (stereo in doubt) [compound 17, ((R)-2-(((S)-3-(1H-indol-3-yl)-1-methoxy-1-oxopropan-2-yl)carbamoyl)-4-methylpentyl)((R)-1-amino-3-phenylpropyl)phosphinic acid], the recovery at 2 h, 10 μM in data set [1] (read-out: Recovery A:B) came to 2%. In data set [1] (read-out: Recovery B:A), the recovery at 2 h, 10 μM stood at 84%. In addition, in data set [1], the Papp B→A (commonly how fast a substance crosses the layer from the basolateral side) at 2 h, 10 μM was below 1 ×10⁻⁶ cm/s and the Papp A→B (as a rule, the apparent permeability from the apical to the basolateral side of a cell layer) at 2 h, 10 μM was below 1 ×10⁻⁶ cm/s. Also, the “stability observation in Caco-2 assay A:B” value in data set [2] is “Ester hydrolysis observed”.
`CC(C)CC(CP(=O)(O)[C@@H](N)CCc1ccccc1)C(=O)N[C@@H](Cc1c[nH]c2ccccc12)C(=O)O` (stereo in doubt) [compound 18, ((2R)-2-((((R)-1-amino-3-phenylpropyl)(hydroxy)phosphoryl)methyl)-4-methylpentanoyl)-L-tryptophan]: the recovery at 2 h, 10 μM in data set [1] (read-out: Recovery A:B) came out at 83%. Also, the recovery at 2 h, 10 μM in data set [1] (read-out: Recovery B:A) is 96%. In data set [1], the Papp B→A at 2 h, 10 μM was below 1 ×10⁻⁶ cm/s and the Papp A→B at 2 h, 10 μM is below 1 ×10⁻⁶ cm/s.
Take `CC(C)C[C@H](CP(=O)(O)[C@@H](N)CCc1ccccc1)C(=O)N[C@@H](Cc1c[nH]c2ccccc12)C(N)=O` [DG013A 1, ((S)-2-(((S)-1-amino-3-(1H-indol-3-yl)-1-oxopropan-2-yl)carbamoyl)-4-methylpentyl)((R)-1-amino-3-phenylpropyl)phosphinic acid, reference compound]: the recovery at 2 h, 10 μM in data set [1] (read-out: Recovery A:B) came out at 97%. Also, the recovery at 2 h, 10 μM in data set [1] (read-out: Recovery B:A) was determined as 100%. Moreover, in data set [1], the Papp B→A at 2 h, 10 μM is below 1 ×10⁻⁶ cm/s and the Papp A→B at 2 h, 10 μM is below 1 ×10⁻⁶ cm/s.
As for `CC(C)C[C@@H](CP(=O)(O)[C@@H](N)CCc1ccccc1)C(=O)N[C@@H](Cc1c[nH]c2ccccc12)C(N)=O` [DG013B 2, reference compound], in data set [1] (read-out: Recovery A:B), the recovery at 2 h, 10 μM came to 83%. In addition, the recovery at 2 h, 10 μM in data set [1] (read-out: Recovery B:A) amounted to 90%. Besides, in data set [1], the Papp B→A at 2 h, 10 μM is below 1 ×10⁻⁶ cm/s and the Papp A→B at 2 h, 10 μM is below 1 ×10⁻⁶ cm/s.
As for `CC(C)C[C@H](CP(=O)(O)[C@H](CCc1ccccc1)NC(=O)OCc1ccccc1)C(=O)N[C@@H](Cc1c[nH]c2ccccc12)C(N)=O` [compound 3, (2S)-2-((((1S)-2-amino-1-(1H-indol-3-ylmethyl)-2-oxo-ethyl)carbamoyl)-4-methyl-pentyl)-((1R)-1-(benzyloxycarbonylamino)-3-phenyl-propyl)phosphinic acid], in data set [1] (read-out: Recovery A:B), the recovery at 2 h, 10 μM stood at 79%. For the same molecule, the recovery at 2 h, 10 μM in data set [1] (read-out: Recovery B:A) turned out to be 84%. The efflux ratio at 2 h, 10 μM in data set [1] (Caco-2, pH 7.4, PappB:A/PappA:B, read-out: CACO2 ER (efflux ratio)) is above 12. For the same molecule, in data set [1], the Papp B→A at 2 h, 10 μM is 4.3 ×10⁻⁶ cm/s and the Papp A→B at 2 h, 10 μM is below 1 ×10⁻⁶ cm/s. Also, the “ERAP2 pIC50 ± SEM” value on human ERAP2 was below 3.66. For the same molecule, at human ERAP2 (read-out: ERAP2 IC50 (geometric mean)), the IC50 (commonly the concentration at which inhibition is half-maximal) is above 220 µM.
